From patent US12643913B2, “Mcl-1 inhibitor formulations” (AMGEN INC., priority 2020, dated 2026)
“Also recorded” adds a separate entry of the source. Read-outs that look alike come from different tables or passages of the source.

Assays:
[1] = Moisture sorption profile (DVS); format: physicochemical; conditions: by 95% RH; listed as crystalline hydrate form of AMG 397
Protocol: Moisture Sorption: Moisture sorption data was collected using a Surface Measurement Systems DVSAdvantage instrument. Equilibrium criteria were set at ±0.001% weight change in 10 minutes with a maximum equilibrium time of 380 minutes.
Moisture Sorption: Moisture sorption data was collected using a Surface Measurement Systems DVSAdvantage instrument. Equilibrium criteria were set at ±0.001% weight change in 10 minutes with a maximum equilibrium time of 360 minutes.

[2] = Pharmacokinetics after oral gavage to male beagle dogs with different pre-treatments (Amgen study 150528); format: in vivo; conditions: 3 mg/kg PO; for Decrease in exposure / bioavailability with change of stomach pH: beagle dogs; for half-life: read-out: T½ (converted); for bioavailability: compared to Phase 1 of the same form, read-out: Relative % F
Protocol: The pharmacokinetics of AMG 397 were assessed following oral administration to male beagle dogs as either a suspension of the crystalline hydrate form of AMG 397 or an amorphous suspension in 2% HPMC, 0.01% Tween 80. The full protocol is described in Amgen study number 150528. The goal of this study was to determine if the amorphous material would lead to increases in bioavailability and if variability in dosing could be reduced. In addition, oncology patients could be receiving acid-reducing agents as co-medication, so it is important to determine if exposure is reduced with elevated stomach pH and if an amorphous formulation of AMG 397 could overcome the drug-drug interaction (DDI). For the studies below, Form 1 is the crystalline hydrate form of AMG 397 and amorphous is the amorphous form of AMG 397.
(§1) Briefly, during each phase five male beagle dogs were assigned to each group of the study. All animals were fasted for at least eight hours prior to dosing and through the first four hours of blood sample collection for each phase. Food was returned within 30 minutes following collection of the last blood sample at the four-hour collection interval. Each animal in Phase 1, received a single oral (PO) gavage dose of the appropriate test article formulation as outlined in the study design Table 6. Oral gavage dosing formulations were continuously stirred throughout dosing. The gavage tube was rinsed with approximately 10 mL of tap water following dosing (prior to removal of the gavage tube). Following each study phase a 7-day washout period was allowed prior to the dosing of the next phase. The same five dogs were assigned to either group 1 or group 2 formulations for the duration of the study.
(§2) Test Article Administration: A total of 10 male beagle dogs were initially assigned to study. All animals were fasted for at least eight hours prior to dosing and through the first four hours of blood sample collection for each phase, where applicable (food will be returned within 30 minutes following collection of the last blood sample at the four hour collection interval, where applicable). Total fasting time […] 24 hours.
Each animal in Phase 1, Groups 1 and 2 received a single oral (PO) gavage dose of the appropriate test article formulation as outlined in the following study design table. Oral gavage dosing formulations was continuously stirred throughout dosing. The gavage tube was rinsed with approximately 10 mL of tap water following dosing (prior to removal of the gavage tube). No pre-treatment will be required for Phase 1.
After a 7-day washout period, each animal in Phase 2, Groups land 2 received a single oral (PO) gavage dose of the appropriate test article formulation as outlined in the following study design table. Oral gavage dosing formulations were continuously stirred throughout dosing. The gavage tube were rinsed with approximately 10 mL of tap water following dosing (prior to removal of the gavage tube). Two hours prior to dosing, each animal received two 20 mg (40 mg total) oral tablets of famotidine followed by a 10 mL dose of deionized water.
After another 7-day washout period, each animal in Phase 3, Groups land 2 received a single oral (PO) gavage dose of the appropriate test article formulation as outlined in the following study design table. Oral gavage dosing formulations were continuously stirred throughout dosing. The gavage tube was rinsed with approximately 10 mL of tap water following dosing (prior to removal of the gavage tube). Thirty minutes prior to dosing, each animal received an intramuscular dose of pentagastrin in phosphate buffered saline at a dose level of 0.006 mg/kg and a dose volume of 0.05 mL/kg.
After a final 7-day washout period, each animal in Phase 4, Groups 1 and 2 received a single oral (PO) gavage dose of the appropriate test article formulation as outlined in the following study design table. Oral gavage dosing formulations were continuously stirred throughout dosing. […]

[3] = Clinical observations in the beagle dog PK study; format: in vivo, male beagle dogs; conditions: 3 mg/kg PO, individual dogs, listed as AMG 397 Form 1
Protocol: as §1, §2
Different pre-treatments were assigned for each phase of the study to mimic several scenarios: • 1. No pre-treatment was administered for Phase 1 as it served as a control. • 2. During Phase 2, at 1 hour 54 minutes to 1 hour 58 minutes prior to dose administration, all animals were pretreated with two 20 mg (40 mg total) oral tablets of famotidine followed by a 10 mL dose of deionized water. […] This was used to determine the role of stomach pH on exposure. • 3. During Phases 3 and 4, at 30 to 38 minutes prior to dose administration, all animals were pretreated with a single intramuscular dose of pentagastrin in phosphate buffered saline, pH 7.4, at a dose level of 0.006 mg/kg and a dose volume of 0.05 mL/kg. The pentagastrin dose was used to ensure that the dogs stomach pH was normalized to pH ˜2.0 as it is known that the dogs stomach pH is often higher than that of humans under resting conditions. • 4. In addition, […], at 1 hour 3 minutes to 1 hour 6 minutes prior to dose administration and 4 hours 10 minutes to 4 hours 11 minutes following dose by oral gavage at a dose level of 3 mg/kg and a dose volume of 4 mL/kg. This final phase was used to study if P-gp played a role in absorption.

[4] = Phase 1, no pre-treatment, male beagle dogs
[5] = Phase 2, famotidine pre-treatment (stomach pH ~6.5), male beagle dogs
[6] = male, beagle, dog, plasma, po, 3 mg/kg, Phase 3, pentagastrin pre-treatment (stomach pH ~2.0), male beagle dogs
[7] = male, beagle, dog, plasma, po, 3 mg/kg, Phase 4, pentagastrin pre-treatment + P-gp inhibitor GF120918, male beagle dogs

## CO[C@]1(CN2CCN3CCCC[C@@H]3C2)/C=C/C[C@H](C)[C@@H](C)S(=O)(=O)NC(=O)c2ccc3c(c2)N(C[C@@H]2CC[C@H]21)C[C@@]1(CCCc2cc(Cl)ccc21)CO3 [AMG 397 Crystalline Hydrate]
[1]
  Moisture sorption weight gain: 3.3%
[2]; [4]
  AUCt: 5.5 µM·h
  Cl/F: 41.7 mL/min/kg
  Cmax: 230 nM
  Tmax: 12.4 h
[2]; [5]
  AUCt: 6.3 µM·h
  Cl/F: 43.3 mL/min/kg
  Cmax: 260 nM
[2]; Phase 3, pentagastrin pre-treatment (stomach pH ~2.0), male beagle dogs
  Cl/F: 13.8 mL/min/kg
[2]; listed as crystalline hydrate form of AMG 397, 3 mg/kg
  Decrease in exposure / bioavailability with change of stomach pH: ≤ 2 fold
[2]; listed as crystalline hydrate form, 3 mg/kg
  Decrease in exposure / bioavailability with change of stomach pH: 2 fold
[2]; male, beagle, dog, plasma, po, 3 mg/kg, Phase 1, no pre-treatment, male beagle dogs
  half-life: 17.3 h
[2]; male, beagle, dog, plasma, po, 3 mg/kg, Phase 1, no pre-treatment
  bioavailability: 100%
[2]; male, beagle, dog, plasma, po, 3 mg/kg, Phase 2, famotidine pre-treatment (stomach pH ~6.5), male beagle dogs, read-out: Tmax
  Tmax: 12.8 h
[2]; male, beagle, dog, plasma, po, 3 mg/kg, Phase 2, famotidine pre-treatment (stomach pH ~6.5), male beagle dogs
  half-life: 16.5 h
[2]; male, beagle, dog, plasma, po, 3 mg/kg, Phase 2, famotidine pre-treatment
  bioavailability: 113%
[2]; [6]
  AUC(0-t): 11.3 µM·h
  Cmax: 450 nM
  half-life: 23.3 h
[2]; male, beagle, dog, plasma, po, 3 mg/kg, Phase 3, pentagastrin pre-treatment (stomach pH ~2.0), male beagle dogs, read-out: Tmax
  Tmax: 13.2 h
[2]; [7]
  AUC(0-t): 16.3 µM·h
  CL/F: 5.17 mL/min/kg
  Cmax: 600 nM
  half-life: 25 h
[2]; male, beagle, dog, plasma, po, 3 mg/kg, Phase 4, pentagastrin pre-treatment + P-gp inhibitor GF120918, male beagle dogs, read-out: Tmax
  Tmax: 11.6 h
[3]; Phase 2 (Days 8 to 14), famotidine pre-treatment
  Positive clinical findings (observation): Limb function impaired
[3]; Phase 3 (Days 15 to 21), pentagastrin pre-treatment
  Positive clinical findings (observation): White, frothy vomitus; also recorded: Limb function impaired; also recorded: Wet hair on entire body; also recorded: Inappetence
[3]; Phase 4 (Days 22 to 24), pentagastrin pre-treatment and inhibitor GF120918 pre- and post-treatment
  Positive clinical findings (observation): Large amount of white,
